Measured values from ChEMBL document CHEMBL3301361, “Experimental in vitro DMPK and physicochemical data on a set of publicly disclosed compounds”.
In brackets after ≈: the same amount, converted by molar mass.

Key:
in vitro [1] = conditions: human
physchem [2] = conditions: pH 7.4 buffer
in vitro [3] = conditions: human, plasma
physchem [4] = conditions: octan-1-ol/water

| Compound | fraction unbound at 5 h (in vitro [3]; PPB) | logD (physchem [4]; pH 7.4, LogD7.4) | further results |
| --- | --- | --- | --- |
| N=C(N)c1cc2c(/C=C/c3ccc4c(c3)OCO4)cccc2s1 |  |  | microsomal CLint (in vitro [1]; liver microsomes): 7 µL/min/mg |
| Cc1c(Sc2ccc(Cl)cc2)c2cc(-c3ccccc3)ccc2n1CC(=O)O |  |  | microsomal CLint (in vitro [1]; liver microsomes): 16 µL/min/mg |
| NC(=O)Nc1cc(-c2ccsc2)sc1C(N)=O |  |  | microsomal CLint (in vitro [1]; liver microsomes): 45 µL/min/mg |
| Cc1ccc(CCNC(=O)c2ccc3sc(CO)nc3c2)cc1 | 0.0293 |  | solubility thermodynamic (physchem [2]): 16.2 µM (≈ 5.29 µg/mL) |
| COc1ccc(N(C(=O)c2occc2Cl)C(C(=O)NC[C@@H](C)O)c2ccccc2F)c(OC)c1 (stereo partly specified) |  |  | microsomal CLint (in vitro [1]; microsomes): 145 µL/min/mg |
| O=C(O)c1cccnc1N1CCC(CN2CCC(Oc3ccc(Cl)c(Cl)c3)CC2)CC1 |  |  | microsomal CLint (in vitro [1]; microsomes): 4 µL/min/mg |
| C[C@H](CO)Nc1nc(SCc2cccc(F)c2F)nc2nc(NS(C)(=O)=O)sc12 | 0.0114 | 0.92 | solubility thermodynamic (physchem [2]): 832 µM (≈ 384 µg/mL) |
| Cc1c(OC2CCN(CC3CCN([C@@H](Cc4ccc(F)cc4)C(=O)O)CC3)CC2)ccc(C#N)c1Cl |  |  | microsomal CLint (in vitro [1]; microsomes): 5.5 µL/min/mg |
| CC(=O)N1CCN(c2ccc(OCC3COC(Cn4ccnc4)(c4ccc(Cl)cc4Cl)O3)cc2)CC1 (stereo unspecified) [KETOCONAZOLE] |  |  | solubility thermodynamic (physchem [2]): 6.2 µM (≈ 3.29 µg/mL); fraction unbound at 5 h (in vitro [3]): 0.028 |
| CC(C(=O)O)c1ccc(-c2ccccc2)c(F)c1 (stereo unspecified) [FLURBIPROFEN] |  |  | microsomal CLint (in vitro [1]; liver microsomes): 23.5 µL/min/mg |
| O=C(NO)C1(CS(=O)(=O)c2ccc(Oc3ccc(Cl)cc3)cc2)CCOCC1 [CTS-1027] | 0.02 |  | solubility thermodynamic (physchem [2]): 126 µM (≈ 53.6 µg/mL) |
| CCS(=O)(=O)Nc1cccc2c1c(Oc1ccc(Cl)cc1)c(C)n2CC(=O)O |  |  | microsomal CLint (in vitro [1]; microsomes): < 3 µL/min/mg |
| CC(=O)Nc1ccc(O)cc1OC[C@@H](O)CN1CCC2(CC1)Cc1cc(Cl)ccc1O2 |  |  | microsomal CLint (in vitro [1]; liver microsomes): 8 µL/min/mg |
| Cc1c(Oc2ccc(Cl)cc2)c2cc(F)ccc2n1CC(=O)O |  |  | microsomal CLint (in vitro [1]; microsomes): < 3 µL/min/mg |
| Cc1c(CC(=O)O)c2cc(F)ccc2n1Cc1nc2ccccc2s1 |  |  | microsomal CLint (in vitro [1]; liver microsomes): < 3 µL/min/mg |
| CC(=O)Nc1ccc2c(c1)c(Sc1ccc(Cl)cc1)c(C)n2CC(=O)O |  |  | microsomal CLint (in vitro [1]; liver microsomes): 36 µL/min/mg |
| O=C(O)[C@H](Cc1ccc(Cl)cc1)N1CCC(CN2CCC(Oc3ccc(Cl)c(Cl)c3)CC2)CC1 |  |  | microsomal CLint (in vitro [1]; liver microsomes): < 3 µL/min/mg |
| CCN(C(=O)Cc1ccc(S(C)(=O)=O)cc1)C1CCN(CCC(c2ccccc2)C2CCN(Cc3ccccc3)CC2)CC1 (stereo unspecified) |  |  | microsomal CLint (in vitro [1]; liver microsomes): > 150 µL/min/mg |
| C[C@H]1CN(Cc2cc(Cl)ccc2CC(=O)O)CCN1S(=O)(=O)Cc1ccccc1 |  |  | microsomal CLint (in vitro [1]; microsomes): < 3 µL/min/mg |
| Cc1ccc2c(N)c(C(N)=O)sc2n1 |  |  | microsomal CLint (in vitro [1]; liver microsomes): 13 µL/min/mg |
| COCC[C@H](Oc1ncnc2c1cnn2-c1ccccc1Cl)C(=O)Nc1ccc(C)cn1 | 0.0457 | 3.6 | solubility thermodynamic (physchem [2]): 100 µM (≈ 45.3 µg/mL) |
| CC(C)Cn1c(=O)n(C)c(=O)c2c(C(=O)N3CC[C@@H](O)C3)c(Cc3ccnc4ccc(F)cc34)sc21 | 0.46 | 1.95 | solubility thermodynamic (physchem [2]): 871 µM (≈ 445 µg/mL) |
| Cc1ccc(CO)cc1N(C)c1ccnc(Nc2cc(N3CCCOCC3)cc(N3CCOCC3)c2)n1 | 0.0556 | 3.3 | solubility thermodynamic (physchem [2]): 91.2 µM (≈ 46 µg/mL) |
| O=C1CN(C(=O)c2ccccc2)C(c2ccccc2)c2cc(Cl)ccc2N1 (stereo unspecified) | 0.0606 | 3.31 |  |
| Cc1c[nH]c(-c2cc(NC(=O)c3ccc(C(F)(F)F)nc3C)ccc2Cl)n1 | 0.0391 | 3.3 |  |
| C[C@H](CO)Nc1nc(SCc2ccccc2)nc2nc(N)sc12 | 0.0457 | 3.12 |  |

| Compound | fraction unbound at 5 h (in vitro [3]; PPB) | logD (physchem [4]; pH 7.4, LogD7.4) | further results |
| --- | --- | --- | --- |
| CCN(CC)S(=O)(=O)c1ccc(-c2nnc(SCC(=O)N3CCc4ccccc43)o2)cc1 | 0.0035 | 3.9 |  |
| CCC(=O)N1CCN(C(=O)c2cc(Cc3n[nH]c(=O)c4ccccc34)ccc2F)CC1 | 0.371 | 1.22 | solubility thermodynamic (physchem [2]): 251 µM (≈ 106 µg/mL) |
| CN[C@@H](C)C(=O)N[C@H](C(=O)N[C@H]1CCN(CCc2ccccc2)C1)C1CCCCC1 | 0.443 | 1.65 |  |
| Nc1ccc(OCCc2ccccc2)cc1 | 0.0343 | 2.71 |  |
| COc1cc(C(=O)NC[C@@H](O)CN2CCC(Oc3ccc(Cl)c(Cl)c3)CC2)ccc1N | 0.0032 | 3.12 |  |
| CC(C)[C@H]1C(=O)N[C@H](CO)Cc2ccccc2N1C |  |  | logD (physchem [4]; pH 7.4): 2.03; fraction unbound at 5 h (in vitro [3]): 0.371 |
| NC(=O)c1ccc(Oc2cccc3cccnc23)c([N+](=O)[O-])c1 |  |  | logD (physchem [4]; pH 7.4): 1.7; fraction unbound at 5 h (in vitro [3]): 0.0383 |
| CC(=O)Nc1ccc2c(c1)N(c1cc(NC3CC3)n3ncc(C#N)c3n1)CC2 | 0.0251 | 3.3 |  |
| COc1ncc2ccc(=O)n(CCN3CCC(NCc4cc5c(cn4)OCCO5)CC3)c2n1 | 0.276 | 0.2 |  |
| CS(=O)(=O)c1ccc2c(C(=O)NC[C@@H](O)CN3CCC(Oc4ccc(C#N)c(Cl)c4)CC3)c[nH]c(=O)c2c1 | 0.319 | 1.41 |  |
| Cc1nc(Cl)c(Cl)n1Cc1sc2c(c1C(=O)N1CC[C@@H](O)C1)c(=O)n(C)c(=O)n2CC(C)C | 0.089 | 1.61 |  |
| CN(C)CCCN1c2ccccc2Sc2ccccc21 [PROMAZINE] | 0.101 | 2.56 |  |
| Cc1ccc(NC(=O)c2ccnc(N3CCOCC3)c2)cc1NC(=O)c1ccc(OCc2ccccn2)cc1 | 0.0149 | 3.47 |  |
| Nc1nc2nc(-c3cccs3)cc(C(F)(F)F)n2n1 | 0.201 | 2.01 |  |
| Cc1ccc(C(=O)N(CCCN)[C@H](c2nc3cc(Cl)ccc3c(=O)n2Cc2ccccc2)C(C)C)cc1 |  |  | logD (physchem [4]; pH 7.4): 2.88; fraction unbound at 5 h (in vitro [3]): 0.0081 |
| COc1c2occc2cc2ccc(=O)oc12 [METHOXSALEN] | 0.0768 | 1.97 |  |
| c1ccc2c(c1)CCN(c1ccncc1)C2 | 0.431 | 1.4 |  |
| COc1cc2ncc(C(N)=O)c(Nc3ccc(F)cc3F)c2cc1N1CCN(C)CC1 | 0.253 | 2.18 |  |
| CC(C)N(CCC(C(N)=O)(c1ccccc1)c1ccccn1)C(C)C (stereo unspecified) [DISOPYRAMIDE] |  |  | logD (physchem [4]; pH 7.4): -0.54; fraction unbound at 5 h (in vitro [3]): 0.666 |
| Nc1nc(Nc2ccc(S(N)(=O)=O)cc2)nn1C(=O)c1c(F)cccc1F [JNJ-7706621] | 0.19 | 1.87 |  |
| CN[C@@H](C)C(=O)N[C@H](C(=O)N[C@H]1CCCN(C(=O)c2ccccc2)C1)C1CCCCC1 | 0.552 | 0.87 |  |
| CSc1ccc(N2C(N)=NC(N)=NC2(C)C)cc1 | 0.666 | -0.84 |  |
| O=C1OC2(c3ccc(O)cc3Oc3cc(O)ccc32)c2ccccc21 [FLUORESCEIN] | 0.19 | 0 |  |
| COc1ccc(NC(=O)c2ccnc(N)n2)cc1 | 0.289 | 1.72 |  |
| CN1CCCC1CCNC(=O)c1ccc(Nc2ncc3cc(-c4ccncc4)ccc3n2)cc1 (stereo unspecified) | 0.0081 | 2.01 |  |
| C[C@H]1O[C@@H](n2cnc3c(N)nc(OCC4CC45CC5)nc32)[C@H](O)[C@H]1Cl (stereo partly specified) | 0.0447 | 3.68 |  |

| Compound | fraction unbound at 5 h (in vitro [3]; PPB) | logD (physchem [4]; pH 7.4, LogD7.4) | further results |
| --- | --- | --- | --- |
| N#Cc1cnn2c(N)cc(-c3ccccc3)nc12 | 0.0499 | 2.48 |  |
| CNc1c(Br)cnc2[nH]c(-c3cccc(N)c3)nc12 | 0.0988 | 2.96 |  |
| O=c1cc(-c2ccccc2)ccn1-c1ccc2c(cnn2CCN2CCCC2)c1 | 0.17 | 1.6 |  |
| CC[C@@H](c1ccc(C(=O)O)c(Oc2cccc(Cl)c2)c1)N1CCC[C@H](n2cc(C)c(=O)[nH]c2=O)C1 | 0.0383 | 0.22 |  |
| COc1ccc2c(c1)N(CCN1CCC(NCc3ccc4c(n3)NC(=O)CO4)CC1)C(=O)CO2 |  |  | logD (physchem [4]; pH 7.4): 0.87; fraction unbound at 5 h (in vitro [3]): 0.112 |
| CCc1nc2c(N)nc3ccccc3c2n1CCCCNS(C)(=O)=O [CPG-52852] | 0.334 | 1.24 | solubility thermodynamic (physchem [2]): 537 µM (≈ 194 µg/mL) |
| COc1ccc2ccc(=O)n(CCN3CCC(NCc4cc5c(cn4)OCCO5)CC3)c2c1 | 0.309 | 1.31 |  |
| NCCCCCc1c[nH]c2ccc(F)cc12 |  |  | logD (physchem [4]; pH 7.4): 0.6; fraction unbound at 5 h (in vitro [3]): 0.36 |
| CCS(=O)(=O)c1ccc2c(c1)N(CCN1CCC(NCc3ccc4c(n3)NC(=O)CO4)CC1)C(=O)CO2 |  |  | logD (physchem [4]; pH 7.4): -0.11; fraction unbound at 5 h (in vitro [3]): 0.304 |
| O=C1COc2ccc(CNC3CCN(CCN4C(=O)COc5ccc(F)cc54)CC3)nc2N1 |  |  | logD (physchem [4]; pH 7.4): 0.9; fraction unbound at 5 h (in vitro [3]): 0.17 |
| CC(C)Nc1nc(NCc2ccccc2)c2sccc2n1 |  |  | logD (physchem [4]; pH 7.4): 3.9; fraction unbound at 5 h (in vitro [3]): 0.0029 |
| Cc1nc(CSc2nc(N[C@H](C)CO)c3sc(=O)[nH]c3n2)cs1 | 0.0086 | 1.73 |  |
| COc1cc(Nc2nc(N[C@@H](C)c3ncc(F)cn3)nc(N3CCOCC3)c2Cl)n[nH]1 | 0.0784 | 2.85 |  |
| Cc1cc(Nc2nc(N[C@@H](C)c3ccc(F)cn3)cnc2C)[nH]n1 | 0.16 | 1.73 |  |
| CC(C(=O)O)c1ccc2oc(-c3ccc(Cl)cc3)nc2c1 (stereo unspecified) [BENOXAPROFEN] | 0.0024 | 1.3 |  |
| CN(CCOc1ccc(CC2SC(=O)NC2=O)cc1)c1ccccn1 (stereo unspecified) [ROSIGLITAZONE] | 0.0026 | 2.5 | solubility thermodynamic (physchem [2]): 28.2 µM (≈ 10.1 µg/mL) |
| N#Cc1cnn2c(NC3CC3)cc(-c3cccs3)nc12 | 0.016 | 2.88 |  |
| CNc1c(Cl)cnc2nc(-c3ccc(OCCN4CCOCC4)cc3)[nH]c12 | 0.0191 | 2.63 |  |
| CC[C@H]1CN(Cc2cc(Cl)ccc2OCC(=O)O)CCN1S(=O)(=O)c1ccccc1 | 0.0069 | 0.44 |  |
| C[C@H](Nc1nc(Nc2ncc(C#N)s2)cc(N2CCOCC2)n1)c1ncc(F)cn1 | 0.117 | 2.26 |  |
| Cc1ccc(NC(=O)c2ccc(C#N)cc2)cc1-n1cnc2ccc(N3CCN(C)CC3)cc2c1=O | 0.319 | 2.73 | solubility thermodynamic (physchem [2]): 32.4 µM (≈ 15.5 µg/mL) |
| N#Cc1c(N)nc2c(c1N)CC(COc1ccccc1)O2 (stereo unspecified) | 0.11 | 2.08 |  |
| Cc1cc(Nc2nc(N[C@@H](C)c3ncc(F)cn3)ncc2Br)n[nH]1 | 0.0854 | 2.39 |  |
| NC(=O)c1cnc(N[C@H]2CCCNC2)c2cc(-c3ccc(F)cc3)sc12 | 0.0262 | 2.01 |  |
| C[C@@H](NC(=O)C1CCCCN1C)c1ccc(Nc2ncc3cc(-c4ccncc4)ccc3n2)cc1 (stereo partly specified) | 0.0383 | 3.34 |  |
